# Assays:
# Experiment in all cases: cells
# NMC-G1 = assay type: functional, cell-based, Homo sapiens; details: Homo sapiens, NMC-G1;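 note: growth inhibition of the NMC-G1 cell line, measured with a cell viability read-out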
# Description: SANGER: Inhibition of human NMC-G1 cell growth in a cell viability assay.
# D283 Med = assay type: functional, cell-based, Homo sapiens; details: Homo sapiens, D283 Med
# Description: SANGER: Inhibition of human D-283MED cell growth in a cell viability assay.
# Becker = assay type: functional, cell-based, Homo sapiens; details: Homo sapiens, Becker;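 note: growth inhibition of Becker cells, read out with a cell viability assay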
# Description: SANGER: Inhibition of human Becker cell growth in a cell viability assay.
# RH-1 = assay type: functional, cell-based, Homo sapiens; details: Homo sapiens, RH-1;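 note: growth inhibition of human RH-1 cells, read out with a cell viability assay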
# Description: SANGER: Inhibition of human RH-1 cell growth in a cell viability assay.
# KG-1 = assay type: functional, cell-based; details: Homo sapiens;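 note: growth inhibition of KG-1 cells, read out by a cell viability assay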
# Description: SANGER: Inhibition of human KG-1 cell growth in a cell viability assay.
# U-266 = assay type: functional, cell-based; details: Homo sapiens
# Description: SANGER: Inhibition of human U-266 cell growth in a cell viability assay.
# JVM-2 = assay type: functional, cell-based; details: Homo sapiens;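 note: growth inhibition of JVM-2 cells determined by a cell viability assay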
# Description: SANGER: Inhibition of human JVM-2 cell growth in a cell viability assay.
# NCI-H747 = assay type: functional, cell-based; details: Homo sapiens;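 note: growth inhibition of human NCI-H747 cells, read out by a cell viability assay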
# Description: SANGER: Inhibition of human NCI-H747 cell growth in a cell viability assay.
# GAK = assay type: functional, cell-based, Homo sapiens; details: Homo sapiens, GAK;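 note: cell growth inhibition read out by a cell viability assay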
# Description: SANGER: Inhibition of human GAK cell growth in a cell viability assay.
# NCI-H209 = assay type: functional, cell-based; details: Homo sapiens;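 note: growth inhibition of human NCI-H209 cells, measured by a cell viability assay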
# Description: SANGER: Inhibition of human NCI-H209 cell growth in a cell viability assay.
# DMS-79 = assay type: functional, cell-based; details: Homo sapiens;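 note: growth inhibition measured with a cell viability assay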
# Description: SANGER: Inhibition of human DMS-79 cell growth in a cell viability assay.
# MLMA = assay type: functional, cell-based, Homo sapiens; details: Homo sapiens, MLMA;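 note: growth inhibition of MLMA cells (human), determined through a cell viability readout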
# Description: SANGER: Inhibition of human MLMA cell growth in a cell viability assay.
# Ramos-2G6-4C10 = assay type: functional, cell-based; details: Homo sapiens;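 note: growth inhibition of the cell line, measured by a cell viability read-out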
# Description: SANGER: Inhibition of human Ramos-2G6-4C10 cell growth in a cell viability assay.
# D-542MG = assay type: functional, cell-based, Homo sapiens; details: Homo sapiens, D-542MG
# Description: SANGER: Inhibition of human D-542MG cell growth in a cell viability assay.
# TE-12 = assay type: functional, cell-based; details: Homo sapiens;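 note: growth inhibition of TE-12 cells, read out by a cell viability assay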
# Description: SANGER: Inhibition of human TE-12 cell growth in a cell viability assay.
# Mo = assay type: functional, cell-based; details: Homo sapiens
# Description: SANGER: Inhibition of human Mo-T cell growth in a cell viability assay.
# KGN = assay type: functional, cell-based, Homo sapiens; details: Homo sapiens, KGN;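 note: growth inhibition of KGN cells, read out with a cell viability assay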
# Description: SANGER: Inhibition of human KGN cell growth in a cell viability assay.
# D-336MG = assay type: functional, cell-based, Homo sapiens; details: Homo sapiens, D-336MG
# Description: SANGER: Inhibition of human D-336MG cell growth in a cell viability assay.
# NCI-H1304 = assay type: functional, cell-based; details: Homo sapiens;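 note: growth inhibition of the cancer cell line, measured in a cell viability assay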
# Description: SANGER: Inhibition of human NCI-H1304 cell growth in a cell viability assay.
# KARPAS-45 = assay type: functional, cell-based; details: Homo sapiens;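 note: inhibition of cell line growth, read out through a viability assay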
# Description: SANGER: Inhibition of human KARPAS-45 cell growth in a cell viability assay.
# HC-1 = assay type: functional, cell-based; details: Homo sapiens;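 note: growth inhibition of HC-1 cells measured by a cell viability assay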
# Description: SANGER: Inhibition of human HC-1 cell growth in a cell viability assay.
# SF-126 = assay type: functional, cell-based, Homo sapiens; details: Homo sapiens, SF-126;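 note: growth inhibition of human SF126 cells, read out with a cell viability assay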
# Description: SANGER: Inhibition of human SF126 cell growth in a cell viability assay.
# HCC2157 = assay type: functional, cell-based; details: Homo sapiens;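 note: growth inhibition of the cancer cell line, read out as cell viability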
# Description: SANGER: Inhibition of human HCC2157 cell growth in a cell viability assay.
# AM-38 = assay type: functional, cell-based, Homo sapiens; details: Homo sapiens, AM-38;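 note: growth inhibition of AM-38 cells of human origin, read out by a cell viability assay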
# Description: SANGER: Inhibition of human AM-38 cell growth in a cell viability assay.
# NCI-H82 = assay type: functional, cell-based; details: Homo sapiens;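 note: growth inhibition of NCI-H82 cells, measured with a cell viability readout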
# Description: SANGER: Inhibition of human NCI-H82 cell growth in a cell viability assay.
# EW-18 = assay type: functional, cell-based; details: Homo sapiens;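 note: growth inhibition of EW-18 cells, read out by a cell viability assay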
# Description: SANGER: Inhibition of human EW-18 cell growth in a cell viability assay.
SMILES,IC50 (NMC-G1) [µM],IC50 (D283 Med) [µM],IC50 (Becker) [µM],IC50 (RH-1) [µM],IC50 (KG-1) [µM],IC50 (U-266) [µM],IC50 (JVM-2) [µM],IC50 (NCI-H747) [µM],IC50 (NCI-H209) [µM],IC50 (DMS-79) [µM],IC50 (MLMA) [µM],IC50 (Ramos-2G6-4C10) [µM],IC50 (D-542MG) [µM],IC50 (TE-12) [µM],IC50 (Mo) [µM],IC50 (KGN) [µM],IC50 (D-336MG) [µM],IC50 (NCI-H1304) [µM],IC50 (KARPAS-45) [µM],IC50 (HC-1) [µM],also measured
C=C1C(=O)O[C@@H]2C3O[C@]3(C)CC/C=C(\C)CC[C@@H]12 (some centres undefined),> 5,> 5,> 5,> 5,> 5,> 5,> 5,> 5,> 5,> 5,> 5,> 5,> 5,> 5,> 5,> 5,> 5,> 5,> 5,> 5,IC50 (GAK): > 5 µM; IC50 (SF-126): > 5 µM; IC50 (HCC2157): > 5 µM; IC50 (AM-38): > 5 µM; IC50 (NCI-H82): > 5 µM; IC50 (EW-18): > 5 µM
CC1=C2C[C@H]3[C@@H](CC=C4C[C@@H](O)CC[C@@]43C)[C@@H]2CC[C@]12O[C@@H]1C[C@H](C)CN[C@H]1[C@H]2C [CYCLOPAMINE],> 16,> 16,> 16,> 16,> 16,> 16,> 16,> 16,> 16,> 16,> 16,> 16,> 16,> 16,> 16,> 16,> 16,> 16,> 16,> 16,IC50 (GAK): > 16 µM; IC50 (SF-126): > 16 µM; IC50 (HCC2157): > 16 µM; IC50 (AM-38): > 16 µM; IC50 (NCI-H82): > 16 µM; IC50 (EW-18): > 16 µM
CS(=O)(=O)CCNCc1ccc(-c2ccc3ncnc(Nc4ccc(OCc5cccc(F)c5)c(Cl)c4)c3c2)o1 [LAPATINIB],> 2,> 2,> 2,> 2,> 2,> 2,> 2,> 2,> 2,> 2,> 2,> 2,> 2,0.491,> 2,> 2,> 2,> 2,> 2,> 2,IC50 (SF-126): > 2 µM; IC50 (HCC2157): > 2 µM; IC50 (AM-38): > 2 µM; IC50 (NCI-H82): > 2 µM; IC50 (EW-18): > 2 µM
CCc1nc(N)nc(N)c1-c1ccc(Cl)cc1 [PYRIMETHAMINE],> 20,> 20,> 20,> 20,> 20,5.13,> 20,> 20,6.06,> 20,> 20,5.64,> 20,> 20,> 20,> 20,> 20,> 20,> 20,5.65,IC50 (GAK): > 20 µM; IC50 (SF-126): > 20 µM; IC50 (HCC2157): > 20 µM; IC50 (AM-38): > 20 µM; IC50 (NCI-H82): 9.11 µM; IC50 (EW-18): > 20 µM
O=C(/C=C/c1ccccc1)NC(NC(=S)Nc1cccc2cccnc12)C(Cl)(Cl)Cl (centres undefined) [SALUBRINAL],> 16,> 16,5.79,> 16,> 16,> 16,> 16,> 16,> 16,> 16,> 16,9.9,13.4,11.3,> 16,> 16,15.1,> 16,> 16,11.2,IC50 (GAK): > 16 µM; IC50 (SF-126): > 16 µM; IC50 (HCC2157): > 16 µM; IC50 (AM-38): > 16 µM; IC50 (NCI-H82): > 16 µM; IC50 (EW-18): > 16 µM

# Source: ChEMBL document CHEMBL1201861, “Genomics of Drug Sensitity in Cancer screening data, Wellcome Trust Sanger Institute”
